Legend:
POROL (common purslane) = assay: Pre-emergence herbicidal activity, warm season; format: in vivo, Portulaca oleracea; conditions: GR80 = lowest tested rate (300, 100, 30, 10 g/ha) with 80% or greater inhibition; approx. 14 days after treating; 30/21° C.
How it was run: (§1)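 Seeds sown in sterilised fertilised topsoil received surface-applied compound in 50:50 acetone/water, typically at 300, 100, 30 and 10 g/ha, then greenhouse-grown at 30/21° C (warm-season species) or 18/13° C (cool-season species). Percent inhibition versus untreated plants was scored at about 14 days, giving GR80; an asterisk marks activity short of 80% at the top rate.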

[1] = system: CIRAR (canada thistle (seedling)); assay: Pre-emergence herbicidal activity, warm season; format: in vivo, Cirsium arvense; conditions: GR80 = lowest tested rate (300, 100, 30, 10 g/ha) with 80% or greater inhibition; approx. 14 days after treating; 30/21° C.
How it was run: as §1

[2] = system: PANMI (wild proso millet); assay: Pre-emergence herbicidal activity, warm season; format: in vivo, Panicum miliaceum; conditions: GR80 = lowest tested rate (300, 100, 30, 10 g/ha) with 80% or greater inhibition; approx. 14 days after treating; 30/21° C.
How it was run: as §1

SETFA (giant foxtail) = assay: Pre-emergence herbicidal activity, warm season; format: in vivo, Setaria faberi; conditions: GR80 = lowest tested rate (300, 100, 30, 10 g/ha) with 80% or greater inhibition; approx. 14 days after treating; 30/21° C.
How it was run: as §1

[3] = system: BRAPP (broadleaf signalgrass); assay: Pre-emergence herbicidal activity, warm season; format: in vivo, Brachiaria platyphylla; conditions: GR80 = lowest tested rate (300, 100, 30, 10 g/ha) with 80% or greater inhibition; approx. 14 days after treating; 30/21° C.
How it was run: as §1

DIGSA (large crabgrass) = assay: Pre-emergence herbicidal activity, warm season; format: in vivo, Digitaria sanguinalis; conditions: GR80 = lowest tested rate (300, 100, 30, 10 g/ha) with 80% or greater inhibition; approx. 14 days after treating; 30/21° C.
How it was run: as §1

[4] = system: GALAP (catchweed bedstraw); assay: Pre-emergence herbicidal activity, cool season; format: in vivo, Galium aparine; conditions: lowest tested rate with 80% or greater inhibition; rates 300, 100, 30, 10 g/ha; about 14 days
How it was run: as §1

POLCO (wild buckwheat) = assay: Pre-emergence herbicidal activity, cool season; format: in vivo, Polygonum convolvulus; conditions: lowest tested rate with 80% or greater inhibition; rates 300, 100, 30, 10 g/ha; about 14 days
How it was run: as §1

SINAR (wild mustard) = assay: Pre-emergence herbicidal activity, cool season; format: in vivo, Sinapis arvensis; conditions: lowest tested rate with 80% or greater inhibition; rates 300, 100, 30, 10 g/ha; about 14 days
How it was run: as §1

[5] = system: VERPE (creeping speedwell); assay: Pre-emergence herbicidal activity, cool season; format: in vivo, Veronica persicaria; conditions: lowest tested rate with 80% or greater inhibition; rates 300, 100, 30, 10 g/ha; about 14 days
How it was run: as §1

SASKR (russian thistle) = assay: Pre-emergence herbicidal activity, cool season; format: in vivo, Salsola kali; conditions: lowest tested rate with 80% or greater inhibition; rates 300, 100, 30, 10 g/ha; about 14 days
How it was run: as §1

STEME (common chickweed) = assay: Pre-emergence herbicidal activity, cool season; format: in vivo, Stellaria media; conditions: lowest tested rate with 80% or greater inhibition; rates 300, 100, 30, 10 g/ha; about 14 days
How it was run: as §1

[6] = system: LAMPU (purple deadnettle); assay: Pre-emergence herbicidal activity, cool season; format: in vivo, Lamium purpureum; conditions: lowest tested rate with 80% or greater inhibition; rates 300, 100, 30, 10 g/ha; about 14 days
How it was run: as §1

ALOMY (blackgrass) = assay: Pre-emergence herbicidal activity, cool season; format: in vivo, Alopecurus myosuroides; conditions: GR80 = lowest tested rate (300, 100, 30, 10 g/ha) with 80% or greater inhibition; approx. 14 days after treating; 18/13° C.
How it was run: as §1

SETVI (green foxtail) = assay: Pre-emergence herbicidal activity, cool season; format: in vivo, Setaria viridis; conditions: GR80 = lowest tested rate (300, 100, 30, 10 g/ha) with 80% or greater inhibition; approx. 14 days after treating; 18/13° C.
How it was run: as §1

AVEFA (wild oat) = assay: Pre-emergence herbicidal activity, cool season; format: in vivo, Avena fatua; conditions: GR80 = lowest tested rate (300, 100, 30, 10 g/ha) with 80% or greater inhibition; approx. 14 days after treating; 18/13° C.
Protocol: (§2) Tables 5 to 8 summarize results of tests conducted as described below to determine the pre-emergence herbicidal activity, in the form of a GR80 value, of illustrative compounds of this invention. […] Compounds of the invention were typically applied at rates of 300, 100, 30, and 10 g/ha. Where herbicidal activity was evident but 80% inhibition was not achieved at the highest rate tested, an asterisk (*) is shown in the following tables.
(§3) The pre-emergence tests were conducted by the following procedure. Topsoil was sieved to pass through a 1.27 cm screen. Fertilizer was added to the topsoil and the mixture was then sterilized by heating. The topsoil mixture was placed in a pot and compacted to a depth of 1.0 to 1.25 cm from the top of the pot. Seeds of each of several monocotyledonous and dicotyledonous annual plant species were placed on top of the soil. Additional soil was subsequently placed over the seeds to level-fill the pot. A known amount of each test compound dissolved or suspended in an appropriate organic solvent was diluted with a 50:50 mix of acetone and water and applied to the surface of the soil. After treatment the plants were placed in a greenhouse where they received 0.64 cm of overhead irrigation. All subsequent watering consisted of a light overhead mist and/or subirrigation as needed for germination and growth. Tables 5 and 6 below relate to warm season plant species which were placed after pre-emergence treatment in a greenhouse with a 30/21° C. day/night temperature regime. Tables 7 and 8 below relates to cool season plant species placed after pre-emergence treatment in a greenhouse or growth chamber with an 18/13° C. day/night temperature regime.
(§4) Approximately 14 days after planting and treating, the plants were observed and herbicidal efficacy recorded as percent inhibition by comparison with untreated plants.
(§5) The plant species usually regarded as weeds which were utilized in the tests are identified in the tables below according to the following legend, in which “d” indicates a dicotyledonous species and “m” a monocotyledonous species. All monocotyledonous species included in the tests herein are grasses.

[7] = system: AEGCY (jointed goatgrass); assay: Pre-emergence herbicidal activity, cool season; format: in vivo, Aegilops cylindrica; conditions: GR80 = lowest tested rate (300, 100, 30, 10 g/ha) with 80% or greater inhibition; approx. 14 days after treating; 18/13° C.
Protocol: as §2, §3, §4, §5

[8] = system: AGSST (creeping bentgrass); assay: Pre-emergence herbicidal activity, cool season; format: in vivo, Agrostis stolonifera; conditions: GR80 = lowest tested rate (300, 100, 30, 10 g/ha) with 80% or greater inhibition; approx. 14 days after treating; 18/13° C.
How it was run: as §1

SOLNI (black nightshade) = assay: Pre-emergence herbicidal activity, warm season; format: in vivo, Solanum nigrum; conditions: GR80 = lowest tested rate (300, 100, 30, 10 g/ha) with 80% or greater inhibition; approx. 14 days after treating; 30/21° C.
How it was run: as §1

[9] = system: CHEAL (common lambsquarters); assay: Pre-emergence herbicidal activity, warm season; format: in vivo, Chenopodium album; conditions: GR80 = lowest tested rate (300, 100, 30, 10 g/ha) with 80% or greater inhibition; approx. 14 days after treating; 30/21° C.
How it was run: as §1

ECHCG (barnyardgrass) = assay: Pre-emergence herbicidal activity, warm season; format: in vivo, Echinochloa crus-galli; conditions: GR80 = lowest tested rate (300, 100, 30, 10 g/ha) with 80% or greater inhibition; approx. 14 days after treating; 30/21° C.
How it was run: as §1

[10] = system: SORHA (johnsongrass (seedling)); assay: Pre-emergence herbicidal activity, warm season; format: in vivo, Sorghum halepense; conditions: GR80 = lowest tested rate (300, 100, 30, 10 g/ha) with 80% or greater inhibition; approx. 14 days after treating; 30/21° C.
How it was run: as §1

PANDI (fall panicum) = assay: Pre-emergence herbicidal activity, warm season; format: in vivo, Panicum dichotomiflorum; conditions: GR80 = lowest tested rate (300, 100, 30, 10 g/ha) with 80% or greater inhibition; approx. 14 days after treating; 30/21° C.
How it was run: as §1

SORVU (shattercane) = assay: Pre-emergence herbicidal activity, warm season; format: in vivo, Sorghum vulgare; conditions: GR80 = lowest tested rate (300, 100, 30, 10 g/ha) with 80% or greater inhibition; approx. 14 days after treating; 30/21° C.
How it was run: as §1

LOLMG (annual ryegrass) = assay: Pre-emergence herbicidal activity, cool season; format: in vivo, Lolium multiflorum; conditions: GR80 = lowest tested rate (300, 100, 30, 10 g/ha) with 80% or greater inhibition; approx. 14 days after treating; 18/13° C.
How it was run: as §1

[11] = system: AGRRE (quackgrass (seedling)); assay: Pre-emergence herbicidal activity, cool season; format: in vivo, Elymus repens; conditions: GR80 = lowest tested rate (300, 100, 30, 10 g/ha) with 80% or greater inhibition; approx. 14 days after treating; 18/13° C.
Protocol: as §2, §3, §4, §5

Structure (SMILES)	Pre-emergence activity (GR80) POROL (POROL (common purslane))	Pre-emergence activity (GR80) PANMI [2]	Pre-emergence activity (GR80) SETFA (SETFA (giant foxtail))	Pre-emergence activity (GR80) BRAPP [3]	Pre-emergence activity (GR80) DIGSA (DIGSA (large crabgrass))	Pre-emergence activity GR80, GALAP [4]	Pre-emergence activity GR80, POLCO (POLCO (wild buckwheat))	Pre-emergence activity GR80, SINAR (SINAR (wild mustard))	Pre-emergence activity GR80, VERPE [5]	Pre-emergence activity GR80, SASKR (SASKR (russian thistle))	Pre-emergence activity GR80, STEME (STEME (common chickweed))	Pre-emergence activity GR80, LAMPU [6]	Pre-emergence activity (GR80) ALOMY (ALOMY (blackgrass))	Pre-emergence activity (GR80) SETVI (SETVI (green foxtail))	Pre-emergence activity (GR80) AVEFA (AVEFA (wild oat))	Pre-emergence activity (GR80) AEGCY [7]	Pre-emergence activity (GR80) AGSST [8]	Pre-emergence activity (GR80) SOLNI (SOLNI (black nightshade))	Pre-emergence activity (GR80) AGRRE [11]	other results
C=CCN(C)C(=O)n1cnc(S(=O)(=O)C(F)F)n1 [Example 30]	300 g/ha	100 g/ha	300 g/ha	300 g/ha	300 g/ha	100 g/ha	100 g/ha	100 g/ha	10 g/ha	10 g/ha	10 g/ha	10 g/ha	300 g/ha	300 g/ha	100 g/ha	100 g/ha	30 g/ha	–	–	Pre-emergence activity (GR80) CIRAR [1]: 300 g/ha
CCCN(CC)C(=O)n1cnc(S(=O)(=O)C(F)(F)SCC)n1 [Example 51]	300 g/ha	100 g/ha	100 g/ha	100 g/ha	100 g/ha	100 g/ha	100 g/ha	10 g/ha	10 g/ha	100 g/ha	10 g/ha	10 g/ha	300 g/ha	100 g/ha	300 g/ha	300 g/ha	10 g/ha	300 g/ha	300 g/ha	Pre-emergence activity (GR80) CHEAL [9]: 10 g/ha; Pre-emergence activity (GR80) ECHCG (ECHCG (barnyardgrass)): 100 g/ha; Pre-emergence activity (GR80) SORHA [10]: 100 g/ha; Pre-emergence activity (GR80) PANDI (PANDI (fall panicum)): 100 g/ha; Pre-emergence activity (GR80) SORVU (SORVU (shattercane)): 30 g/ha; Pre-emergence activity (GR80) LOLMG (LOLMG (annual ryegrass)): 100 g/ha
COCCN(C)C(=O)n1cnc(S(=O)(=O)C(F)(F)C(F)(F)Br)n1 [Example 76]	300 g/ha	100 g/ha	300 g/ha	–	300 g/ha	100 g/ha	300 g/ha	10 g/ha	30 g/ha	30 g/ha	300 g/ha	100 g/ha	300 g/ha	100 g/ha	300 g/ha	300 g/ha	100 g/ha	300 g/ha	100 g/ha	–

— patent US6461997B1, “Triazole sulfones having herbicidal activity” (Monsanto Technology LLC, priority 1999, dated 2002)
